In ChEMBL document CHEMBL3132769, “Fragment growing to retain or alter the selectivity of anchored kinase hinge-binding fragments” (Medchemcomm, 2014):

Columns and labels:
[1] = molecular target: Protein kinase C delta type (Homo sapiens) (UniProt Q05655); assay: Inhibition of human truncated PKC delta expressed in baculovirus assessed as substrate phosphorylation using fluorescence-labelled peptides as substrate at 0.2 uM after 90 mins by microfluidic peptide phosphorylation assay
[2] = tested on: Tyrosine-protein kinase ABL1 (Homo sapiens), P00519 [H396P]; assay: Inhibition of human truncated ABL H396P mutant expressed in baculovirus assessed as substrate phosphorylation using fluorescence-labelled peptides as substrate at 9 uM after 90 mins by microfluidic peptide phosphorylation assay
[3] = molecular target: Tyrosine-protein kinase Fer (Homo sapiens) (UniProt P16591); assay: Inhibition of human FER catalytic domain expressed in baculovirus assessed as substrate phosphorylation using fluorescence-labelled peptides as substrate at 9 uM after 90 mins by microfluidic peptide phosphorylation assay
Chain of Tyrosine-protein kinase Fer (Homo sapiens) (P16591 whole entry, looked up, the tested form may be a part): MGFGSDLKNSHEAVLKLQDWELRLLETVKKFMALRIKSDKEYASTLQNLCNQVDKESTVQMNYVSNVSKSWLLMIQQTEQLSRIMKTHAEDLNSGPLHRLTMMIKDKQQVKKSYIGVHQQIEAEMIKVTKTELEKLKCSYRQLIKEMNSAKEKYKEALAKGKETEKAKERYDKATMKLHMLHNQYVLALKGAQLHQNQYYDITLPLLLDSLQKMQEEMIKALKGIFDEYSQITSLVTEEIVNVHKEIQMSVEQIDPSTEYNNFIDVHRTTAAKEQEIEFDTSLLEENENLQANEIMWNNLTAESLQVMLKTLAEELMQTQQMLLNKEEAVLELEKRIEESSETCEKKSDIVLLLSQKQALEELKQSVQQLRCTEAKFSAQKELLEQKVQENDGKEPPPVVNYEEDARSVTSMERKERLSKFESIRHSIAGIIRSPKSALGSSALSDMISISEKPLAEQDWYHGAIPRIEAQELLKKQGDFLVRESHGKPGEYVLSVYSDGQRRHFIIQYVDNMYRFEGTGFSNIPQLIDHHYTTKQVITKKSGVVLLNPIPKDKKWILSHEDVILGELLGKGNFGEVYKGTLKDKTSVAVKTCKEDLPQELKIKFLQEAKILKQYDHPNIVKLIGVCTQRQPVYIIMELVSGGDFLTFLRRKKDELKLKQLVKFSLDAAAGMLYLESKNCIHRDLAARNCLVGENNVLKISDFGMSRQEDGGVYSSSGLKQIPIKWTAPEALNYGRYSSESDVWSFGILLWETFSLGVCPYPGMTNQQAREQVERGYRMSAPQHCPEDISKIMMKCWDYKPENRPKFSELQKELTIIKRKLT

[4] = molecular target: Fibroblast growth factor receptor 4 (Homo sapiens) (UniProt P22455); assay: Inhibition of human FGFR4 catalytic domain expressed in baculovirus assessed as substrate phosphorylation using fluorescence-labelled peptides as substrate at 2 uM after 90 mins by microfluidic peptide phosphorylation assay
Chain of Fibroblast growth factor receptor 4 (Homo sapiens) (P22455 22-802 limits assumed): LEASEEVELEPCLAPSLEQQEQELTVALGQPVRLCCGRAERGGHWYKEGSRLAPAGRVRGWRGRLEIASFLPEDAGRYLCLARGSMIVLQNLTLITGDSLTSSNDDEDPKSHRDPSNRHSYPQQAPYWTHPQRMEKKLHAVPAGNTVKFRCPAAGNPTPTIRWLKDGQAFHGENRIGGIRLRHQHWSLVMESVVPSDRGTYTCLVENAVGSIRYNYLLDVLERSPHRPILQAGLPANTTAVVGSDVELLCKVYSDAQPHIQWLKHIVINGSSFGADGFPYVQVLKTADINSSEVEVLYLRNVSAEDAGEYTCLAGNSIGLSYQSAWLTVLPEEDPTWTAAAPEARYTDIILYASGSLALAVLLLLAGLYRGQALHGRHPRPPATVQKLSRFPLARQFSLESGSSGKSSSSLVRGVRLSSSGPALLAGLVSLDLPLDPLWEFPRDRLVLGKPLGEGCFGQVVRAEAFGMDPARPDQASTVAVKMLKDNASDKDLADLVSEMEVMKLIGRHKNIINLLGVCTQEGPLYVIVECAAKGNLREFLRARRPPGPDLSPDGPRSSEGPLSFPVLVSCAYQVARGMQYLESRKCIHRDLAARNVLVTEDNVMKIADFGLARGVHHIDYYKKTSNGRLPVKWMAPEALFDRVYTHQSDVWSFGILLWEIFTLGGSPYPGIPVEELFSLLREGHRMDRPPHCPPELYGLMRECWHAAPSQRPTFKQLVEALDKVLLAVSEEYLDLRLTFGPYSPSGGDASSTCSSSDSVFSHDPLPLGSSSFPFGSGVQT

[5] = molecular target: T1, Testis-specific serine/threonine-protein kinase 2 (Homo sapiens) (UniProt Q96PF2); settings: 0.1 uM
T1 sequence (whole entry): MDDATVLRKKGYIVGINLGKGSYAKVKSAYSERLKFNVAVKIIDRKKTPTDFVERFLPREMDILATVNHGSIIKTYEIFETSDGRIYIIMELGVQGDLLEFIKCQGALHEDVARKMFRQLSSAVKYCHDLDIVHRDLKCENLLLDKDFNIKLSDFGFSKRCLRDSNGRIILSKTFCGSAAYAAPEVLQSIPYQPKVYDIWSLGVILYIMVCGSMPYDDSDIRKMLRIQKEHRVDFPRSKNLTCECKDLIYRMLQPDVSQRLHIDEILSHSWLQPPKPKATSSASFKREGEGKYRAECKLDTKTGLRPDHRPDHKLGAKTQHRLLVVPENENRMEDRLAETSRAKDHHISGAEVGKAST
Description: Inhibition of human full length TSSK2 expressed in baculovirus assessed as substrate phosphorylation using fluorescence-labelled peptides as substrate at 0.1 uM after 90 mins by microfluidic peptide phosphorylation assay

[6] = molecular target: Protein kinase C alpha type (Homo sapiens) (UniProt P17252); settings: 0.1 uM
Description: Inhibition of human truncated PKC alpha expressed in baculovirus assessed as substrate phosphorylation using fluorescence-labelled peptides as substrate at 0.1 uM after 90 mins by microfluidic peptide phosphorylation assay

[7] = molecular target: T2, MAP kinase-activated protein kinase 5 (Homo sapiens) (UniProt Q8IW41); assay: Inhibition of human full length PRAK expressed in baculovirus assessed as substrate phosphorylation using fluorescence-labelled peptides as substrate at 0.1 uM after 90 mins by microfluidic peptide phosphorylation assay
T2 sequence (whole entry): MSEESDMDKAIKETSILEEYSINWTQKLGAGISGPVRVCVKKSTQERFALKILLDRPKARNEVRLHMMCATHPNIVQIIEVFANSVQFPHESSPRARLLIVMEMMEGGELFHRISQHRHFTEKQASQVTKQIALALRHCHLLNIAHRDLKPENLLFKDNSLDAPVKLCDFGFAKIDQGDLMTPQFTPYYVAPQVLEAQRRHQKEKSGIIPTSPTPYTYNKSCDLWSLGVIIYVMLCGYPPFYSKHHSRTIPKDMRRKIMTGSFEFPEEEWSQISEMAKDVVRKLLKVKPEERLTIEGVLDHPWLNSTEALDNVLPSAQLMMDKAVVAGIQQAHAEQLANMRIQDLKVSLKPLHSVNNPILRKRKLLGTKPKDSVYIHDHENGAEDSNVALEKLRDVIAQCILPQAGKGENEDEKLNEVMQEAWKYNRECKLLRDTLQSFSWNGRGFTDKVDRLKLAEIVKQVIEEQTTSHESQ

[8] = molecular target: T3, Serine/threonine-protein kinase 3 (Homo sapiens) (UniProt Q13188); assay: Inhibition of human full length MST2 expressed in baculovirus assessed as substrate phosphorylation using fluorescence-labelled peptides as substrate at 0.06 uM after 90 mins by microfluidic peptide phosphorylation assay
T3 sequence (whole entry): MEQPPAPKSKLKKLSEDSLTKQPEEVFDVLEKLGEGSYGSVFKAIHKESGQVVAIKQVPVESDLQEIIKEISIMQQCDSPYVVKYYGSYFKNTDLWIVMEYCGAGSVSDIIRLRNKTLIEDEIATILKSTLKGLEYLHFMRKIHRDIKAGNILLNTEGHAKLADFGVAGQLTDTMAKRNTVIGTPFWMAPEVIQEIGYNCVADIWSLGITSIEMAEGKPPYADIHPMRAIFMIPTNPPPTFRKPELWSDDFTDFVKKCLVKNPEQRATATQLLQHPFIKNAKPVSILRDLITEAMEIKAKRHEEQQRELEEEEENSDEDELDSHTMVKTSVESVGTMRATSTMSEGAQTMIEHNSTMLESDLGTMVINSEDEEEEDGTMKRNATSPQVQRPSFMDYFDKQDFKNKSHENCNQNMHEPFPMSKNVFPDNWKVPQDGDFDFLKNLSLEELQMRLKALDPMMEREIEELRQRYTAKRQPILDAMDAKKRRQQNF

[9] = molecular target: Mitogen-activated protein kinase kinase kinase kinase 4 (Homo sapiens) (UniProt O95819); assay: Inhibition of human HGK catalytic domain expressed in baculovirus assessed as substrate phosphorylation using fluorescence-labelled peptides as substrate at 8 uM after 90 mins by microfluidic peptide phosphorylation assay
[10] = molecular target: Casein kinase I isoform delta (Homo sapiens) (UniProt P48730); assay: Inhibition of human CK1D catalytic domain expressed in Escherichia coli cell assessed as substrate phosphorylation using fluorescence-labelled peptides as substrate at 8 uM after 90 mins by microfluidic peptide phosphorylation assay
Chain of Casein kinase I isoform delta (Homo sapiens) (P48730 whole entry, looked up, the tested form may be a part, canonical isoform): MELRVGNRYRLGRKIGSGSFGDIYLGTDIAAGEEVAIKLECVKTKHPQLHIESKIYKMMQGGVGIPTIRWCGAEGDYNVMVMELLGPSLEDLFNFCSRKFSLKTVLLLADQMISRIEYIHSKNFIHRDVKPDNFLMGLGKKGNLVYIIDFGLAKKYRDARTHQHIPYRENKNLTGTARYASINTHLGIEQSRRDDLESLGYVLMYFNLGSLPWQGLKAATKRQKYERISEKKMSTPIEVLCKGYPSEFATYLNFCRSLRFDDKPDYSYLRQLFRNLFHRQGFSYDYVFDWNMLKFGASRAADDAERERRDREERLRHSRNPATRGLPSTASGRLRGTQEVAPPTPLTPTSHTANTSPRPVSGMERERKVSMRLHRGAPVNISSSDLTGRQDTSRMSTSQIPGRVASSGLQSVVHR

[11] = molecular target: Tyrosine-protein kinase BTK (Homo sapiens) (UniProt Q06187); assay: Inhibition of human full length BTK expressed in baculovirus assessed as substrate phosphorylation using fluorescence-labelled peptides as substrate at 1000 uM after 90 mins by microfluidic peptide phosphorylation assay
Chain of Tyrosine-protein kinase BTK (Homo sapiens) (Q06187 whole entry): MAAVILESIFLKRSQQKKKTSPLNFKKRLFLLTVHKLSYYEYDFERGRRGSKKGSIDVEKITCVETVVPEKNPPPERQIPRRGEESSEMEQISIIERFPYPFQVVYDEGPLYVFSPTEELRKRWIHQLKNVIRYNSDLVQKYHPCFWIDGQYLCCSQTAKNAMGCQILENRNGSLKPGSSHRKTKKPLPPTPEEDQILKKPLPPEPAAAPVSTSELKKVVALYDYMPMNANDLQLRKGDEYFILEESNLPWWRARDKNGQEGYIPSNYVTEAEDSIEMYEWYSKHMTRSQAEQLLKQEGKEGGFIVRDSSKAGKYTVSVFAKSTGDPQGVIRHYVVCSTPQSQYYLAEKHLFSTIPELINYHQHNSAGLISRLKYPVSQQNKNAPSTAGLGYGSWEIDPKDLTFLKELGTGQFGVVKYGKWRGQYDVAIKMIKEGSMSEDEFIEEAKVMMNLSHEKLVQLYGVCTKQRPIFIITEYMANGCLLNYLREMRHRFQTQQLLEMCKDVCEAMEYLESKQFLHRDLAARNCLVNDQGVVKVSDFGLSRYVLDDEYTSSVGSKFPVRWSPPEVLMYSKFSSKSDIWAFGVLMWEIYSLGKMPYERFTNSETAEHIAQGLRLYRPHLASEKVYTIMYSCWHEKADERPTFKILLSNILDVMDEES

[12] = molecular target: Glycogen synthase kinase-3 beta (Homo sapiens) (UniProt P49841); assay: Inhibition of human full length GSK-3 beta expressed in baculovirus assessed as substrate phosphorylation using fluorescence-labelled peptides as substrate at 1000 uM after 90 mins by microfluidic peptide phosphorylation assay
Chain of Glycogen synthase kinase-3 beta (Homo sapiens) (P49841 whole entry, looked up): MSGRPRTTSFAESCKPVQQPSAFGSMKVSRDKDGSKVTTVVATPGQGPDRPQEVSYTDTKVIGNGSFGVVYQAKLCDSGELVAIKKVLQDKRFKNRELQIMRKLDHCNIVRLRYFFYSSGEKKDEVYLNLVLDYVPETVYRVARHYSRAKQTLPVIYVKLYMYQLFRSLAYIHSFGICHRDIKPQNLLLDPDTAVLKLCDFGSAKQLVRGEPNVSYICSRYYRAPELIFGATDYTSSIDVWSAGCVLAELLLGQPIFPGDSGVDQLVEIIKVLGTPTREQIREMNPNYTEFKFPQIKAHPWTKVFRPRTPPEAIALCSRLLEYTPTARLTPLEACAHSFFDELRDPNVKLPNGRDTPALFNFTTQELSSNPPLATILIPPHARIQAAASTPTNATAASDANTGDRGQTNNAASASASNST

Chain of Protein kinase C delta type (Homo sapiens) (Q05655 whole entry, looked up, the tested form may be a part): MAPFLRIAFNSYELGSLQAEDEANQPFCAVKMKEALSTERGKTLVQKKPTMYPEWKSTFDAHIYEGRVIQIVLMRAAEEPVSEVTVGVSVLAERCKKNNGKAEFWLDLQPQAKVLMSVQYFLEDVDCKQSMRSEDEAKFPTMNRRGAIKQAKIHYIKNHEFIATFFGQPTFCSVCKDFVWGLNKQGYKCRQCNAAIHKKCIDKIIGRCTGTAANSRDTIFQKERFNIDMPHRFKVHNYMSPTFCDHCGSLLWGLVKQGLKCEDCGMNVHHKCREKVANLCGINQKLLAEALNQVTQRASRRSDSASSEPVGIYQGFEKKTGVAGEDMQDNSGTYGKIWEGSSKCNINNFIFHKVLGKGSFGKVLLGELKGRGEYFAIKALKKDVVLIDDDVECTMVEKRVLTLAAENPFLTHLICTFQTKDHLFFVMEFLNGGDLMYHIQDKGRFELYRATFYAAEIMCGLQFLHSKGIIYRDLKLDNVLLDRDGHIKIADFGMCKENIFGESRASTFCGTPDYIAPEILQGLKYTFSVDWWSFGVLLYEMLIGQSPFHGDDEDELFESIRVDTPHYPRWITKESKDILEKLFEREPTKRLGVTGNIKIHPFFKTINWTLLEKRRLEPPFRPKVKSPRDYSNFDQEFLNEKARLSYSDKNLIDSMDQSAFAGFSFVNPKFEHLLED

Structure (SMILES): Clc1ccc(C2(c3ccc(-c4ncnc5[nH]cnc45)cc3)CCNCC2)cc1
- inhibition [1]: 37.5%

Structure (SMILES): NCC1CN(c2ncnc3[nH]c4cnccc4c23)CCO1 (configuration not stated)
- inhibition [2]: 16%
- inhibition [3]: 11%

Structure (SMILES): NC1CCN(c2ncnc3[nH]ccc23)CC1
- inhibition [4]: 0%

Structure (SMILES): C[C@H](CN(C)C)Oc1nc(Nc2cc3cccc(Cl)c3cn2)cnc1C#N
- inhibition [5]: 0%
- inhibition [6]: 0%
- inhibition [7]: 3.5%

Structure (SMILES): NC1(Cc2ccc(Cl)cc2)CCN(c2ncnc3[nH]ccc23)CC1
- inhibition [8]: 3%

Structure (SMILES): NCC1CCN(c2ncnc3[nH]ccc23)CC1
- inhibition [9]: 11.5%
- inhibition [10]: 25.5%

Structure (SMILES): c1cnc2[nH]ccc2c1
- inhibition [11]: 19%
- inhibition [12]: 32%
